US9994558B2, “Multicyclic compounds and methods of using same” (Karyopharm Therapeutics Inc., priority 2013, dated 2018)
pIC50: −log10 of the molar value.

Key:
Format in all cases: cell-based
3T3 cells = assay: MTT cell proliferation assay, 3T3 cells; settings: Mus musculus, NIH3T3; 3T3 fibroblast cells; incubation approximately 64-72 hours
Method: (§1) The MTT cell proliferation assay was used to study the cytotoxic properties of the compounds. The assay was performed according to the method described by Roche Molecular Biochemicals, with minor modifications. The assay is based on the cleavage of the tetrazolium salt, MTT, in the presence of an electron-coupling reagent. The water-insoluble formazan salt produced must be solubilized in an additional step. Cells grown in a 96-well tissue culture plate were incubated with the MTT solution for approximately 4 hours. After this incubation period, a water-insoluble formazan dye formed. After solubilization, the formazan dye was quantitated using a scanning multi-well spectrophotometer (ELISA reader). […] The cells were seeded at 5,000-10,000 cells in each well of 96-well plate in 100 μL of fresh culture medium and were allowed to attach overnight. The stock solutions of the compounds were diluted in 100 μL cell culture medium to obtain eight concentrations of each test compound, ranging from 1 nM to 30 μM. […] All optical densities were measured at 490 nm using a Vmax Kinetic Microplate Reader (Molecular Devices). In most cases, the assay was performed in duplicate and the results were presented as a mean percent inhibition to the negative control±SE. The following formula was used to calculate the percent of inhibition. Inhibition (%)=(1−(ODo/OD))×100.
(§2) The compounds were tested against MS751, Z138 and 3T3 cells. The MS751 cell line is derived from a metastasis to lymph node of human cervix from a patient diagnosed with squameous cell carcinoma of the cervix. The […] cell line is a mature B-cell acute lymphoblastic leukemia cell line derived from a patient with chronic lymphocytic leukemia. 3T3 cells are standard fibroblast cells; they were originally isolated from Swiss mouse embryo tissue.

Z138 cells = assay: MTT cell proliferation assay, Z138 cells; settings: Homo sapiens, Z-138, incubation approximately 64-72 hours
Method: as §1, §2

MS751 cells = assay: MTT cell proliferation assay, MS751 cells; settings: Homo sapiens, incubation approximately 64-72 hours
Method: as §1, §2

SMILES	pIC50 (3T3 cells)	pIC50 (Z138 cells)	pIC50 (MS751 cells)
Nc1ccc(/C=C/C(=O)NCCOc2ccc(-c3ccc(C(=O)N4CCCCC4)cc3)cc2Cl)cn1 [Compound 329, (E)-3-(6-aminopyridin-3-yl)-N-(2-(3-chloro-4′-(piperidine-1-carbonyl)biphenyl-4-yloxy)ethyl)acrylamide]	< 5.00	> 7.00	> 7.00
CC(=O)c1ccc(-c2ccc(OCCNC(=O)/C=C/c3ccc(N)nc3)c(Cl)n2)s1 [Compound 330, (E)-N-(2-(6-(5-acetylthiophen-2-yl)-2-chloropyridin-3-yloxy)ethyl)-3-(6-aminopyridin-3-yl)acrylamide]	< 5.00	5.30 to 7.00	5.30 to 7.00
CC(=O)c1ccc(-c2cnc(OCCNC(=O)/C=C/c3ccc(N)nc3)c(Cl)c2)s1 [Compound 331, (E)-N-(2-(5-(5-acetylthiophen-2-yl)-3-chloropyridin-2-yloxy)ethyl)-3-(6-aminopyridin-3-yl)acrylamide]	< 5.00	< 5.00	< 5.00
Nc1ccc(/C=C/C(=O)NCCOc2cc(Cl)cc(-c3ccc(C(=O)N4CC(F)(F)C4)cc3)c2)cn1 [Compound 332, (E)-3-(6-aminopyridin-3-yl)-N-(2-(5-chloro-4′-(3,3-difluoroazetidine-1-carbonyl)biphenyl-3-yloxy)ethyl)acrylamide]	5.30 to 7.00	> 7.00	> 7.00
CC(C)(CNC(=O)/C=C/c1ccc(N)nc1)Oc1ccc(-c2ccc(C(=O)N3CC(F)(F)C3)cc2)cc1Cl [Compound 333, (E)-3-(6-aminopyridin-3-yl)-N-(2-(3-chloro-4′-(3,3-difluoroazetidine-1-carbonyl)biphenyl-4-yloxy)-2-methylpropyl)acrylamide]	< 5.00	5.30 to 7.00	5.30 to 7.00
CN(CCOc1ccc(-c2ccc(C(=O)N3CC(F)(F)C3)cc2)cc1Cl)C(=O)/C=C/c1ccc(N)nc1 [Compound 334, (E)-3-(6-aminopyridin-3-yl)-N-(2-(3-chloro-4′-(3,3-difluoroazetidine-1-carbonyl)biphenyl-4-yloxy)ethyl)-N-methylacrylamide]	5.00 to 5.30	> 7.00	5.30 to 7.00
CC1(C)COCCN1C(=O)c1ccc(-c2ccc(OCCNC(=O)/C=C/c3ccc(N)nc3)c(Cl)c2)cc1 [Compound 335, (E)-3-(6-aminopyridin-3-yl)-N-(2-(3-chloro-4′-(3,3-dimethylmorpholine-4-carbonyl)biphenyl-4-yloxy)ethyl)acrylamide]	5.30 to 7.00	> 7.00	> 7.00
Nc1ccc(/C=C/C(=O)NCCCOc2ccc(-c3ccc(C(=O)N4CC(F)(F)C4)cc3)cc2Cl)cn1 [Compound 336, (E)-3-(6-aminopyridin-3-yl)-N-(3-(3-chloro-4′-(3,3-difluoroazetidine-1-carbonyl)biphenyl-4-yloxy)propyl)acrylamide]	5.30 to 7.00	> 7.00	> 7.00
Nc1ccc(/C=C/C(=O)NCCS(=O)(=O)c2ccc(-c3ccc(C(=O)N4CC(F)(F)C4)cc3)cc2Cl)cn1 [Compound 337, (E)-3-(6-aminopyridin-3-yl)-N-(2-(3-chloro-4′-(3,3-difluoroazetidine-1-carbonyl)biphenyl-4-ylsulfonyl)ethyl)acrylamide]	< 5.00	< 5.00	< 5.00
Nc1ccc(/C=C/C(=O)NCCOc2ccc(-c3ccc(C(=O)N4CC(F)(F)C4)cc3)cc2C(F)(F)F)cn1 [Compound 338, (E)-3-(6-aminopyridin-3-yl)-N-(2-(4′-(3,3-difluoroazetidine-1-carbonyl)-3-(trifluoromethyl)biphenyl-4-yloxy)ethyl)acrylamide]	> 7.00	> 7.00	> 7.00
Nc1ccc(/C=C/C(=O)NCCOc2ccc(-c3ccc(C(=O)N4CCOCC4)cc3)cc2C(F)(F)F)cn1 [Compound 339, (E)-3-(6-aminopyridin-3-yl)-N-(2-(4′-(morpholine-4-carbonyl)-3-(trifluoromethyl)biphenyl-4-yloxy)ethyl)acrylamide]	5.30 to 7.00	> 7.00	> 7.00
CC(C)(CNC(=O)/C=C/c1ccc(N)nc1)Oc1ccc(F)c(-c2ccc(C(=O)N3CCOCC3)cc2)c1 [Compound 340, (E)-3-(6-aminopyridin-3-yl)-N-(2-(6-fluoro-4′-(morpholine-4-carbonyl)biphenyl-3-yloxy)-2-methylpropyl)acrylamide]	< 5.00	> 7.00	5.30 to 7.00
[2H]C([2H])(CNC(=O)/C=C/c1ccc(N)nc1)Oc1ccc(-c2ccc(C(=O)N3CCOCC3)cc2)cc1Cl [Compound 342, (E)-3-(6-aminopyridin-3-yl)-N-(2,2-dideutero-2-(3-chloro-4′-(morpholine-4-carbonyl)biphenyl-4-yloxy)ethyl)acrylamide]	5.30 to 7.00	> 7.00	> 7.00
[2H]C([2H])(CNC(=O)/C=C/c1ccc(N)nc1)Oc1ccc(F)c(-c2ccc(C(=O)N3CCOCC3)cc2)c1 [Compound 343, (E)-3-(6-aminopyridin-3-yl)-N-(2,2-dideutero-2-(6-fluoro-4′-(morpholine-4-carbonyl)biphenyl-3-yloxy)ethyl)acrylamide]	< 5.00	5.30 to 7.00	5.30 to 7.00
Nc1ccc(/C=C/C(=O)NCCOc2cc(Cl)cc(-c3ccc(C(=O)N4CCOCC4)cc3)c2)cn1 [Compound 344, (E)-3-(6-aminopyridin-3-yl)-N-(2-(5-chloro-4′-(morpholine-4-carbonyl)biphenyl-3-yloxy)ethyl)acrylamide]	5.30 to 7.00	> 7.00	> 7.00
Nc1ccc(/C=C/C(=O)NCCCOc2cc(Cl)cc(-c3ccc(C(=O)N4CCOCC4)cc3)c2)cn1 [Compound 345, (E)-3-(6-aminopyridin-3-yl)-N-(3-(5-chloro-4′-(morpholine-4-carbonyl)biphenyl-3-yloxy)propyl)acrylamide]	5.30 to 7.00	> 7.00	> 7.00
CC(C)(CNC(=O)/C=C/c1ccc(N)nc1)Oc1cc(Cl)cc(-c2ccc(C(=O)N3CCOCC3)cc2)c1 [Compound 347, (E)-3-(6-aminopyridin-3-yl)-N-(2-(5-chloro-4′-(morpholine-4-carbonyl)biphenyl-3-yloxy)-2-methylpropyl)acrylamide]	< 5.00	> 7.00	5.30 to 7.00
Nc1ccc(/C=C/C(=O)NCCCOc2ccc(-c3ccc(C(=O)N4CCOCC4)cc3)cc2Cl)cn1 [Compound 348, (E)-3-(6-aminopyridin-3-yl)-N-(3-(3-chloro-4′-(morpholine-4-carbonyl)biphenyl-4-yloxy)propyl)acrylamide]	5.30 to 7.00	> 7.00	> 7.00
Nc1ccc(/C=C/C(=O)NCC(F)(F)COc2ccc(-c3ccc(C(=O)N4CCOCC4)cc3)cc2Cl)cn1 [Compound 349, (E)-3-(6-aminopyridin-3-yl)-N-(3-(3-chloro-4′-(morpholine-4-carbonyl)biphenyl-4-yloxy)-2,2-difluoropropyl)acrylamide]	5.30 to 7.00	> 7.00	> 7.00
CC(C)(CNC(=O)/C=C/c1ccc(N)nc1)COc1ccc(-c2ccc(C(=O)N3CCOCC3)cc2)cc1Cl [Compound 350, (E)-3-(6-Aminopyridin-3-yl)-N-(3-((3-chloro-4′-(morpholine-4-carbonyl)-[1,1′-biphenyl]-4-yl)oxy)-2,2-dimethylpropyl)acrylamide]	5.30 to 7.00	> 7.00	5.30 to 7.00
Nc1ccc(/C=C/C(=O)NCCOc2ccc(-c3nnc(C(=O)N4CCOCC4)o3)cc2Cl)cn1 [Compound 351, (E)-3-(6-aminopyridin-3-yl)-N-(2-(2-chloro-4-(5-(morpholine-4-carbonyl)-1,3,4-oxadiazol-2-yl)phenoxy)ethyl)acrylamide]	< 5.00	5.30 to 7.00	5.30 to 7.00
CC(CCOc1cc(-c2ccc(C(=O)N3CCC(F)(F)CC3)cn2)cc(C(F)(F)F)c1)NC(=O)/C=C/c1ccc(N)nc1 (stereo not drawn) [Compound 352, (E)-3-(6-aminopyridin-3-yl)-N-(4-(3-(5-(4,4-difluoropiperidine-1-carbonyl)pyridin-2-yl)-5-(trifluoromethyl)phenoxy)butan-2-yl)acrylamide]	< 5.00	5.30 to 7.00	5.30 to 7.00
Nc1ccc(CNC(=O)/C=C/COc2ccc(-c3ccc(C(=O)N4CCC(F)(F)CC4)cn3)cc2C(F)(F)F)cn1 [Compound 353, (E)-N-((6-aminopyridin-3-yl)methyl)-4-(4-(5-(4,4-difluoropiperidine-1-carbonyl)pyridin-2-yl)-2-(trifluoromethyl)phenoxy)but-2-enamide]	< 5.00	5.30 to 7.00	5.30 to 7.00
Nc1ccc(CNC(=O)/C=C\COc2ccc(-c3ccc(C(=O)N4CCC(F)(F)CC4)cn3)cc2C(F)(F)F)cn1 [Compound 354, (Z)—N-((6-aminopyridin-3-yl)methyl)-4-(4-(5-(4,4-difluoropiperidine-1-carbonyl)pyridin-2-yl)-2-(trifluoromethyl)phenoxy)but-2-enamide]	< 5.00	< 5.00	< 5.00
